In the NIST ThermoML archive (doi:10.1021/je060204g):
Numbers after ± are expanded uncertainties.

Conditions: 101 kPa, Liquid mixture 1, Drop weight

Cc1ccccc1 [toluene] + O
Conditions | interfacial tension [mN/m]
293.15 K | 37.1 ± 0.5
298.15 K | 36.1 ± 0.5
303.15 K | 35.5 ± 0.5
308.15 K | 35.1 ± 0.4
313.15 K | 34.7 ± 0.4
323.15 K | 34.3 ± 0.4
